Key:
BKIII = test: Comparative Example 1: measurement using BKIII, reaction recovery rate; type: biochemical, Thermosediminibacter oceani; settings: 5 mM substrate
Procedure: (§1) It was examined whether butyric acid could be measured by using acetate kinase (AK) or propionic acid kinase (PK) instead of butyrate kinase. For comparison, measurement using BKIII was also performed.
(§2) Neutralized 100 mM acetic acid, butyric acid, and isobutyric acid were mixed with physiological saline to prepare a 5 mM acetic acid aqueous solution, a 5 mM butyric acid aqueous solution, and a 5 mM isobutyric acid aqueous solution, respectively.
(§3) The composition of the first reagent was the same as that of the first reagent used for examining the substrate specificity of Reference Example 7.
(§4) AK (Sigma-Aldrich Co. LLC., derived from E. coli), PK (MyBioSource, recombinant protein) and BKIII were added to 100 mM Tris-HCl (pH 7.5) (Sigma-Aldrich Co. LLC.), respectively, to prepare an enzyme solution containing each enzyme at a concentration of 1.25 to 40 U/mL.
(§5) The measurement was performed using a 7180 type Hitachi automatic analyzer (Hitachi High-Tech Corporation). The measurement parameters of the automatic analyzer were the same as in Example 2.
(§6) In the same manner as in Example 2, butyric acid and isobutyric acid in the sample were measured by the automatic analyzer. The reaction recovery rate (%) was calculated by dividing the measured value by the theoretical absorbance value. The theoretical absorbance is the absorbance when all the substrate (butyric acid or isobutyric acid) in the sample is converted to NADPH, and is calculated by the following formula. […] (Theoretical absorbance)= (substrate concentration in sample)×[(sample volume)/(sample volume+ first reagent amount+second reagent amount)]×(NADPH millimole molecular extinction coefficient at 340 nm)= 5×[3.5/(3.5+140+35)]×6.3= 0.617

[1] = system: BKII (recombinant butyrate kinase derived from Acetoanaerobium sticklandii); test: Substrate specificity of butyrate kinase BKII; type: biochemical; settings: 100 mM sodium salt of fatty acid in second reagent, pH 7.5
Procedure: (§7) Various fatty acids shown in Table 1 were used as a substrate. The measurement was performed using a 7180 type Hitachi automatic analyzer (Hitachi High-Tech Corporation). […] PHARMA CORPORATION) • 5 U/mL ADP-HK II (ADP dependent hexokinase: […] PHARMA CORPORATION) […] In the composition of the second reagent, “sodium salts of various fatty acids” means any one kind of sodium caprylate, sodium caproate, sodium valerate, sodium isovalerate, sodium butyrate, sodium isobutyrate, sodium propionate, sodium acetate, sodium lactate, and sodium succinate. Isobutyric acid, valeric acid, isovaleric acid, caproic acid, and octanoic acid, which are commercially available fatty acids and are not sold as sodium salts, were adjusted to pH 7.5 with sodium hydroxide. […] [Measurement Parameters of Automatic Analyzer] • Analysis method: […]

[2] = system: BKIII (recombinant butyrate kinase derived from Thermosediminibacter oceani); test: Substrate specificity of butyrate kinase BKIII; type: biochemical; settings: 100 mM sodium salt of fatty acid in second reagent, pH 7.5
Procedure: as §7

acetate kinase (AK) = molecular target: T1, acetate kinase (AK) (Escherichia coli, UniProt P0A6A3); test: Comparative Example 1: measurement using acetate kinase, reaction recovery rate; type: biochemical, E. coli; settings: 5 mM substrate
T1 construct: purchased Sigma-Aldrich Co. LLC
T1 sequence (P0A6A3 whole entry): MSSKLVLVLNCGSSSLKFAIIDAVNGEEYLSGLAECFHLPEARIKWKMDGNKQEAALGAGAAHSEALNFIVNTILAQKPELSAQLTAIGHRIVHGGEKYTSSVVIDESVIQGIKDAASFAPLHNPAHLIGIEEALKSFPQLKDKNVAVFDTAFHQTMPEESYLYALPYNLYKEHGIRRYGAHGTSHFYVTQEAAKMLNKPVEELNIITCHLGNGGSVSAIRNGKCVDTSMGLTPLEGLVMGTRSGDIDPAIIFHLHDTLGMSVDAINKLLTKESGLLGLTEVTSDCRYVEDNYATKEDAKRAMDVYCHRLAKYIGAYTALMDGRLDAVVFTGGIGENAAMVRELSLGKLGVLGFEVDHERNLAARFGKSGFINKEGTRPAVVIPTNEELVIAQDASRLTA
Procedure: as §1, §2, §3, §4, §5, §6

[3] = system: butyrate-acetoacetate-CoA transferase (EC 2.8.3.9); test: Comparative Example 3: measurement using butyrate-acetoacetate-CoA transferase, reaction recovery rate; type: biochemical, E. coli; settings: 60 μg/mL butyrate-acetoacetate-CoA transferase in second reagent; 5 mM substrate
Procedure: It was examined whether acetic acid and butyric acid could be measured by the reaction of formula (12), which is the reverse reaction of the formula (11), using butyrate-[…] transferase instead of butyrate kinase. […] The measurement was performed using a 7180 type Hitachi automatic analyzer (Hitachi High-Tech Corporation). […] LLC.) • 0.35 mM Acetoacetyl-CoA (Sigma-Aldrich Co. LLC.) • 2 mM MgCl2 (FUJIFILM Wako Pure Chemical Corporation) • 0.25 mM β-NADH (Oriental Yeast Co., Ltd.) • 5 U/mL 3-hydroxybutyrate dehydrogenase (FUJIFILM Wako Pure Chemical Corporation) […] LLC.) The measurement was performed using a 7180 type Hitachi automatic analyzer (Hitachi High-Tech Corporation). The measurement parameters of the automatic analyzer were the same as in Example 2.

[4] = system: propionic acid kinase (PK); test: Comparative Example 1: measurement using propionic acid kinase, reaction recovery rate; type: biochemical; settings: 5 mM substrate
Procedure: as §1, §2, §3, §4, §5, §6

[5] = system: acetate-CoA transferase (EC 2.8.3.8); test: Comparative Example 2: measurement using acetate-CoA transferase, reaction recovery rate; type: biochemical, E. coli; settings: 30 μg/mL acetate-CoA transferase in second reagent; 5 mM substrate
Description: Acetate-CoA transferase (EC 2.8.3.8) has been reported to catalyze the reaction represented by the following formula (9) (EC 2.8.3.8 in the Enzyme nomenclature database on the ExPASy-SIB Bioinformatics Resource Portal).). It was examined whether butyric acid could be measured by the reaction of formula (10), which is the reverse reaction of formula (9), using acetate-CoA transferase instead of butyrate kinase The acetic acid produced by the formula (10) by acetate-CoA transferase was confirmed by the reaction with AK of Comparative Example 1. The measurement was performed using a 7180 type Hitachi automatic analyzer (Hitachi High-Tech Corporation). [Chemical formula 7] Acyl-CoA+acetic acid ? fatty acid+acetyl-CoA (9) Butyric acid+acetyl-CoA→butyrate-CoA+acetic acid (10)
The 5 mM butyric acid and 5 mM isobutyric acid aqueous solution used in Comparative Example 1 were used. […]
In the same manner as in Example 2, butyric acid and isobutyric acid in the sample were measured by the automatic analyzer. The reaction recovery rate (%) was calculated by dividing the measured value by the theoretical absorbance value of Comparative Example 1.

[6] = BKIII activity value in reaction mixed solution 0.3 U/mL
[7] = BKIII activity value in reaction mixed solution 0.5 U/mL
[8] = BKIII activity value in reaction mixed solution 1.0 U/mL
[9] = BKIII activity value in reaction mixed solution 2.0 U/mL
[10] = BKIII activity value in reaction mixed solution 4.0 U/mL
[11] = BKIII activity value in reaction mixed solution 8.0 U/mL
[12] = AK activity value in reaction mixed solution 0.3 U/mL
[13] = AK activity value in reaction mixed solution 0.5 U/mL
[14] = AK activity value in reaction mixed solution 1.0 U/mL
[15] = AK activity value in reaction mixed solution 2.0 U/mL
[16] = AK activity value in reaction mixed solution 4.0 U/mL
[17] = AK activity value in reaction mixed solution 8.0 U/mL
[18] = PK activity value in reaction mixed solution 0.3 U/mL
[19] = PK activity value in reaction mixed solution 0.5 U/mL
[20] = PK activity value in reaction mixed solution 1.0 U/mL
[21] = PK activity value in reaction mixed solution 2.0 U/mL
[22] = PK activity value in reaction mixed solution 4.0 U/mL
[23] = PK activity value in reaction mixed solution 8.0 U/mL

SMILES | reaction recovery rate (BKIII; [6]) | reaction recovery rate (BKIII; [7]) | reaction recovery rate (BKIII; [8]) | reaction recovery rate (BKIII; [9]) | reaction recovery rate (BKIII; [10]) | reaction recovery rate (BKIII; [11]) | substrate specificity, relative value when the activity value with respect to butyric acid is 100 [1] | substrate specificity, relative value when the activity value with respect to butyric acid is 100 [2] | reaction recovery rate (acetate kinase (AK); [12]) | reaction recovery rate (acetate kinase (AK); [13]) | reaction recovery rate (acetate kinase (AK); [14]) | reaction recovery rate (acetate kinase (AK); [15]) | reaction recovery rate (acetate kinase (AK); [16]) | reaction recovery rate (acetate kinase (AK); [17]) | Reaction recovery rate (%) [3] | reaction recovery rate [4, 18] | reaction recovery rate [4, 19] | reaction recovery rate [4, 20] | reaction recovery rate [4, 21] | reaction recovery rate [4, 22] | further results
CC(=O)O [Acetic acid] | 0% | 0% | 0% | 0% | 1% | 2% | 1% | 1% | 16% | 28% | 44% | 62% | 78% | 88% | 1% | 0% | 2% | 3% | 9% | 21% | reaction recovery rate [4, 23]: 39%
CCCC(=O)O [Butyric acid] | 36% | 53% | 70% | 84% | 93% | 98% | 100% | 100% | 0% | 0% | 0% | 0% | 0% | 0% | 2% | 0% | 0% | 0% | 2% | 4% | Reaction recovery rate (%) [5]: 3%; reaction recovery rate [4, 23]: 8%
CC(C)C(=O)O [Isobutyric acid] | 40% | 55% | 70% | 83% | 91% | 96% | 84% | 80% | 0% | 0% | 0% | 0% | 0% | 0% | 2% | 0% | 0% | 0% | 0% | 0% | Reaction recovery rate (%) [5]: 4%; reaction recovery rate [4, 23]: 0%

From US11773379B2, “Enzymes and reagents for measurement of short chain fatty acids” (SYSMEX CORPORATION, priority 2018, dated 2023)
